Values quoted from earlier work, collected in patent US9937198B2, “Multi-functional composition and preparation method and application thereof” (Suzhou Sciscape Bio-Pharmaceutical Technology Co., Ltd., priority 2013, dated 2018).

Legend:
[1] = system: rats; conditions: cited from earlier work
[2] = system: bees and other beneficial insects; conditions: in vivo; cited from earlier work
[3] = pure validamycin A; cited from earlier work

OCC1=C[C@@H](N[C@H]2C[C@H](CO)[C@@H](O[C@H]3O[C@@H](CO)[C@H](O)[C@@H](O)[C@@H]3O)[C@H](O)[C@H]2O)[C@H](O)[C@@H](O)[C@@H]1O [Validamycin A, validamycin A]
acute oral toxicity (LD50) in rats [1]: above 20 g/kg | toxicity to bees and other beneficial insects [2]: no toxicity | solubility in water [3]: soluble in water
